Patent US12319672B2, “Alpha-D-galactopyranoside derivatives” (Idorsia Pharmaceuticals Ltd, priority 2019, dated 2025)

Legend:
human Gal-3 (hGal-3) = human Gal-3 (hGal-3) (Homo sapiens (Human), UniProt P17931); assay: Competitive binding assay: binding of biotinylated hGal-3 to microplate-adsorbed asialofetuin (ASF); conditions: Activity on hGal-3; mean values of several measurements
How it was run: (§1)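 Spectrophotometric readout (streptavidin-peroxidase, ABTS) of biotinylated galectin retained on ASF-coated wells. Biotinylated hGal-1 or hGal-3, 300-1000 ng/mL, co-incubated with test compound 3 h at 4° C, then washed. Mean IC50 from repeat runs.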

human Gal-1 (hGal-1) = assay: Competitive binding assay: binding of biotinylated hGal-1 to microplate-adsorbed asialofetuin (ASF); conditions: Activities on hGal-1; mean values of several measurements
human Gal-1 (hGal-1), sequence (P09382 2-135 limits assumed): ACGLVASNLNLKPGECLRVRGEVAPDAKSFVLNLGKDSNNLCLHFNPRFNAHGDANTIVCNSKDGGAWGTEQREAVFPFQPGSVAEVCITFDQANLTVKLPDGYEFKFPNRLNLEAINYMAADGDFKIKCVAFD
How it was run: as §1

human Gal-3 (hGal-3), sequence (P17931 whole entry): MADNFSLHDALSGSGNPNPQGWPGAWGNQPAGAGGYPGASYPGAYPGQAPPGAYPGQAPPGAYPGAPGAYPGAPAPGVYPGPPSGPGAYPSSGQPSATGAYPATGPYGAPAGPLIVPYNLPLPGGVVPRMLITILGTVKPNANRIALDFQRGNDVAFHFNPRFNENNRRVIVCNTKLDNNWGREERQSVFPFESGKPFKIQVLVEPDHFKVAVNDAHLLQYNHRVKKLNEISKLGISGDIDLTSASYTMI

| SMILES | IC50 (human Gal-3 (hGal-3)) | IC50 (human Gal-1 (hGal-1)) |
| --- | --- | --- |
| CO[C@@H]1[C@@H](n2cc(-c3cc(F)c(F)c(F)c3)nn2)[C@@H](O)[C@@H](CO)O[C@@H]1Cc1cc(C(C)(C)NC(=O)OC(C)(C)C)no1 [Ex 1.216] | 340 nM | 3970 nM |
| CO[C@@H]1[C@@H](n2cc(-c3cc(F)c(F)c(F)c3)nn2)[C@@H](O)[C@@H](CO)O[C@@H]1Cc1cc(C(C)(C)N)no1 [Ex 1.217] | 180 nM | 2030 nM |
| CO[C@@H]1[C@@H](n2cc(-c3cc(F)c(F)c(Cl)c3)nn2)[C@@H](O)[C@@H](CO)O[C@@H]1Cc1cc(C2CCCCC2)on1 [Ex 1.218] | 420 nM | 10600 nM |
| CO[C@@H]1[C@@H](n2cc(-c3cc(F)c(F)c(Cl)c3)nn2)[C@@H](O)[C@@H](CO)O[C@@H]1Cc1cc(C2CCN(C(C)=O)CC2)on1 [Ex 1.219] | 23 nM | 430 nM |
| CCOC(=O)N1CCC(c2cc(C[C@H]3O[C@H](CO)[C@H](O)[C@H](n4cc(-c5cc(F)c(F)c(Cl)c5)nn4)[C@H]3OC)no2)CC1 [Ex 1.220] | 35 nM | 570 nM |
| CO[C@@H]1[C@@H](n2cc(-c3cc(F)c(F)c(Cl)c3)nn2)[C@@H](O)[C@@H](CO)O[C@@H]1Cc1cc(C(C)(C)C)on1 [Ex 1.221] | 160 nM | 980 nM |
| CO[C@@H]1[C@@H](n2cc(-c3cc(F)c(F)c(F)c3)nn2)[C@@H](O)[C@@H](CO)O[C@@H]1Cc1cc(C2CCCC2)no1 [Ex 1.222] | 110 nM | 8000 nM |
| CO[C@@H]1[C@@H](n2cc(-c3cc(F)c(C#N)c(F)c3)nn2)[C@@H](O)[C@@H](CO)O[C@@H]1CC1CC(C2CCN(C(=O)OC(C)(C)C)CC2)=NO1 (stereo partly drawn) [Ex 1.223] | 380 nM | 16700 nM |
| CO[C@@H]1[C@@H](n2cc(-c3ccc(C)c(F)c3F)nn2)[C@@H](O)[C@@H](CO)O[C@@H]1Cc1cc(C2CCC2)on1 [Ex 1.224] | 70 nM | 14100 nM |
| CO[C@@H]1[C@@H](n2cc(-c3cc(F)c(F)c(F)c3)nn2)[C@@H](O)[C@@H](CO)O[C@@H]1Cc1cc(C2(O)CCC2)on1 [Ex 1.225] | 530 nM | 4850 nM |
| CO[C@@H]1[C@@H](n2cc(-c3ccc(F)c(F)c3F)nn2)[C@@H](O)[C@@H](CO)O[C@@H]1Cc1cc(C2CCC2)on1 [Ex 1.226] | 130 nM | 1190 nM |
| CO[C@@H]1[C@@H](n2cc(-c3ccc(Cl)c(F)c3F)nn2)[C@@H](O)[C@@H](CO)O[C@@H]1Cc1cc(C2CCC2)on1 [Ex 1.227] | 77 nM | 16600 nM |
| CO[C@@H]1[C@@H](n2cc(-c3cccc(F)c3)nn2)[C@@H](O)[C@@H](CO)O[C@@H]1Cc1cc(C2CCN(C(=O)OC(C)(C)C)CC2)on1 [Ex 1.228] | 200 nM | 790 nM |
| CO[C@@H]1[C@@H](n2cc(-c3ccc(C)c(F)c3F)nn2)[C@@H](O)[C@@H](CO)O[C@@H]1Cc1cc(-c2ccc(F)c(F)c2F)on1 [Ex 1.229] | 530 nM | > 100000 nM |
| CO[C@@H]1[C@@H](n2cc(-c3ccc(Cl)c(F)c3F)nn2)[C@@H](O)[C@@H](CO)O[C@@H]1Cc1cc(-c2ccc(F)c(F)c2F)on1 [Ex 1.231] | 910 nM | > 100000 nM |
| CO[C@@H]1[C@@H](n2cc(-c3ccc(F)c(F)c3F)nn2)[C@@H](O)[C@@H](CO)O[C@@H]1Cc1cc(C(C)(C)O)on1 [Ex 1.232] | 100 nM | 970 nM |
| CO[C@@H]1[C@@H](n2cc(-c3ccc(F)c(F)c3F)nn2)[C@@H](O)[C@@H](CO)O[C@@H]1Cc1cc(C2(O)CCCCC2)on1 [Ex 1.233] | 88 nM | 1330 nM |
| CO[C@@H]1[C@@H](n2cc(-c3ccc(F)c(F)c3F)nn2)[C@@H](O)[C@@H](CO)O[C@@H]1Cc1cc(C2(O)CCCC2)on1 [Ex 1.234] | 57 nM | 1270 nM |
| CO[C@@H]1[C@@H](n2cc(-c3ccc(F)c(F)c3F)nn2)[C@@H](O)[C@@H](CO)O[C@@H]1Cc1cc(C2CCCC2)on1 [Ex 1.235] | 100 nM | 1330 nM |
| CO[C@@H]1[C@@H](n2cc(-c3ccc(F)c(F)c3F)nn2)[C@@H](O)[C@@H](CO)O[C@@H]1Cc1cc(C2(O)CCC2)on1 [Ex 1.236] | 57 nM | 960 nM |
| CO[C@@H]1[C@@H](n2cc(-c3ccc(C)c(F)c3F)nn2)[C@@H](O)[C@@H](CO)O[C@@H]1Cc1cc(C(C)(C)O)on1 [Ex 1.237] | 75 nM | 4220 nM |
| CO[C@@H]1[C@@H](n2cc(-c3ccc(C)c(F)c3F)nn2)[C@@H](O)[C@@H](CO)O[C@@H]1Cc1cc(C2(O)CCCCC2)on1 [Ex 1.238] | 45 nM | 3740 nM |
| CO[C@@H]1[C@@H](n2cc(-c3ccc(C)c(F)c3F)nn2)[C@@H](O)[C@@H](CO)O[C@@H]1Cc1cc(C2(O)CCCC2)on1 [Ex 1.239] | 72 nM | 6440 nM |
| CO[C@@H]1[C@@H](n2cc(-c3ccc(C)c(F)c3F)nn2)[C@@H](O)[C@@H](CO)O[C@@H]1Cc1cc(C2CCCC2)on1 [Ex 1.240] | 100 nM | 13900 nM |

| SMILES | IC50 (human Gal-3 (hGal-3)) | IC50 (human Gal-1 (hGal-1)) |
| --- | --- | --- |
| CO[C@@H]1[C@@H](n2cc(-c3ccc(C)c(F)c3F)nn2)[C@@H](O)[C@@H](CO)O[C@@H]1Cc1cc(C2(O)CCC2)on1 [Ex 1.241] | 79 nM | 2580 nM |
| CO[C@@H]1[C@@H](n2cc(-c3ccc(Cl)c(F)c3F)nn2)[C@@H](O)[C@@H](CO)O[C@@H]1Cc1cc(C(C)(C)O)on1 [Ex 1.242] | 68 nM | 2900 nM |
| CO[C@@H]1[C@@H](n2cc(-c3ccc(Cl)c(F)c3F)nn2)[C@@H](O)[C@@H](CO)O[C@@H]1Cc1cc(C2(O)CCCCC2)on1 [Ex 1.243] | 42 nM | 1330 nM |
| CO[C@@H]1[C@@H](n2cc(-c3ccc(Cl)c(F)c3F)nn2)[C@@H](O)[C@@H](CO)O[C@@H]1Cc1cc(C2(O)CCCC2)on1 [Ex 1.244] | 110 nM | 3290 nM |
| CO[C@@H]1[C@@H](n2cc(-c3ccc(Cl)c(F)c3F)nn2)[C@@H](O)[C@@H](CO)O[C@@H]1Cc1cc(C2CCCC2)on1 [Ex 1.245] | 67 nM | 1860 nM |
| CO[C@@H]1[C@@H](n2cc(-c3ccc(Cl)c(F)c3F)nn2)[C@@H](O)[C@@H](CO)O[C@@H]1Cc1cc(C2(O)CCC2)on1 [Ex 1.246] | 73 nM | 1720 nM |
| CO[C@@H]1[C@@H](n2cc(-c3cc(F)c(C)cc3F)nn2)[C@@H](O)[C@@H](CO)O[C@@H]1Cc1cc(C(C)(C)C)on1 [Ex 1.247] | 210 nM | 2290 nM |
| CO[C@@H]1[C@@H](n2cc(-c3cc(F)c(C)cc3F)nn2)[C@@H](O)[C@@H](CO)O[C@@H]1Cc1cc(C2CCCCC2)on1 [Ex 1.248] | 700 nM | > 100000 nM |
| CO[C@@H]1[C@@H](n2cc(-c3ccc(Br)c(F)c3)nn2)[C@@H](O)[C@@H](CO)O[C@@H]1Cc1cc(C2CCN(C(=O)OC(C)(C)C)CC2)on1 [Ex 1.249] | 150 nM | 1780 nM |
| CO[C@@H]1[C@@H](n2cc(-c3ccc(F)c(F)c3F)nn2)[C@@H](O)[C@@H](CO)O[C@@H]1Cc1cc(C(C)(C)C)no1 [Ex 1.250] | 57 nM | 250 nM |
| CO[C@@H]1[C@@H](n2cc(-c3ccc(F)c(F)c3F)nn2)[C@@H](O)[C@@H](CO)O[C@@H]1Cc1cc(C2(C)CC2)no1 [Ex 1.251] | 44 nM | 360 nM |
| CO[C@@H]1[C@@H](n2cc(-c3ccc(F)c(F)c3F)nn2)[C@@H](O)[C@@H](CO)O[C@@H]1Cc1cc(C2(C)COC2)no1 [Ex 1.252] | 69 nM | 280 nM |
| CO[C@@H]1[C@@H](n2cc(-c3ccc(F)c(F)c3F)nn2)[C@@H](O)[C@@H](CO)O[C@@H]1Cc1cc(C(C)(C)CO)no1 [Ex 1.253] | 58 nM | 280 nM |
| CO[C@@H]1[C@@H](n2cc(-c3ccc(C)c(F)c3F)nn2)[C@@H](O)[C@@H](CO)O[C@@H]1Cc1cc(C(C)(C)C)no1 [Ex 1.254] | 31 nM | 1110 nM |
| CO[C@@H]1[C@@H](n2cc(-c3ccc(C)c(F)c3F)nn2)[C@@H](O)[C@@H](CO)O[C@@H]1Cc1cc(C2(C)CC2)no1 [Ex 1.255] | 32 nM | 2060 nM |
| CO[C@@H]1[C@@H](n2cc(-c3ccc(C)c(F)c3F)nn2)[C@@H](O)[C@@H](CO)O[C@@H]1Cc1cc(C2(C)COC2)no1 [Ex 1.256] | 55 nM | 1560 nM |
| CO[C@@H]1[C@@H](n2cc(-c3ccc(C)c(F)c3F)nn2)[C@@H](O)[C@@H](CO)O[C@@H]1Cc1cc(C(C)(C)CO)no1 [Ex 1.257] | 44 nM | 1780 nM |
| CO[C@@H]1[C@@H](n2cc(-c3ccc(Cl)c(F)c3F)nn2)[C@@H](O)[C@@H](CO)O[C@@H]1Cc1cc(C(C)(C)C)no1 [Ex 1.258] | 37 nM | 980 nM |
| CO[C@@H]1[C@@H](n2cc(-c3ccc(Cl)c(F)c3F)nn2)[C@@H](O)[C@@H](CO)O[C@@H]1Cc1cc(C2(C)CC2)no1 [Ex 1.259] | 33 nM | 620 nM |
| CO[C@@H]1[C@@H](n2cc(-c3ccc(Cl)c(F)c3F)nn2)[C@@H](O)[C@@H](CO)O[C@@H]1Cc1cc(C2(C)COC2)no1 [Ex 1.260] | 63 nM | 1410 nM |
| CO[C@@H]1[C@@H](n2cc(-c3ccc(Cl)c(F)c3F)nn2)[C@@H](O)[C@@H](CO)O[C@@H]1Cc1cc(C(C)(C)CO)no1 [Ex 1.261] | 42 nM | 1050 nM |
| CO[C@@H]1[C@@H](n2cc(-c3ccc(F)c(F)c3F)nn2)[C@@H](O)[C@@H](CO)O[C@@H]1Cc1cc(C(C)(CO)CCl)no1 (stereo partly drawn) [Ex 1.262] | 70 nM | 330 nM |
| CO[C@@H]1[C@@H](n2cc(-c3ccc(C)c(F)c3F)nn2)[C@@H](O)[C@@H](CO)O[C@@H]1Cc1cc(C(C)(CO)CCl)no1 (stereo partly drawn) [Ex 1.263] | 58 nM | 1030 nM |
| CO[C@@H]1[C@@H](n2cc(-c3ccc(Cl)c(F)c3F)nn2)[C@@H](O)[C@@H](CO)O[C@@H]1Cc1cc(C(C)(CO)CCl)no1 (stereo partly drawn) [Ex 1.264] | 71 nM | 1610 nM |
